Data from US12479840B2, “HMG-CoA reductase degradation inducing compound” (Uppthera, priority 2020, dated 2025).

What follows are molecules tested against T1, HMG-CoA reductase (Homo sapiens, UniProt P04035) (assay: HMG-CoA reductase (HMGCR) degradation in HepG2 cells by western blotting). Conditions: treated for 18 hours, ratio of HMG-CoA reductase to GAPDH, read-out: DC50.
T1 construct: endogenous in cells; host or cells: HepG2 (Korea Cell Line Bank)
T1 sequence (P04035 1-888): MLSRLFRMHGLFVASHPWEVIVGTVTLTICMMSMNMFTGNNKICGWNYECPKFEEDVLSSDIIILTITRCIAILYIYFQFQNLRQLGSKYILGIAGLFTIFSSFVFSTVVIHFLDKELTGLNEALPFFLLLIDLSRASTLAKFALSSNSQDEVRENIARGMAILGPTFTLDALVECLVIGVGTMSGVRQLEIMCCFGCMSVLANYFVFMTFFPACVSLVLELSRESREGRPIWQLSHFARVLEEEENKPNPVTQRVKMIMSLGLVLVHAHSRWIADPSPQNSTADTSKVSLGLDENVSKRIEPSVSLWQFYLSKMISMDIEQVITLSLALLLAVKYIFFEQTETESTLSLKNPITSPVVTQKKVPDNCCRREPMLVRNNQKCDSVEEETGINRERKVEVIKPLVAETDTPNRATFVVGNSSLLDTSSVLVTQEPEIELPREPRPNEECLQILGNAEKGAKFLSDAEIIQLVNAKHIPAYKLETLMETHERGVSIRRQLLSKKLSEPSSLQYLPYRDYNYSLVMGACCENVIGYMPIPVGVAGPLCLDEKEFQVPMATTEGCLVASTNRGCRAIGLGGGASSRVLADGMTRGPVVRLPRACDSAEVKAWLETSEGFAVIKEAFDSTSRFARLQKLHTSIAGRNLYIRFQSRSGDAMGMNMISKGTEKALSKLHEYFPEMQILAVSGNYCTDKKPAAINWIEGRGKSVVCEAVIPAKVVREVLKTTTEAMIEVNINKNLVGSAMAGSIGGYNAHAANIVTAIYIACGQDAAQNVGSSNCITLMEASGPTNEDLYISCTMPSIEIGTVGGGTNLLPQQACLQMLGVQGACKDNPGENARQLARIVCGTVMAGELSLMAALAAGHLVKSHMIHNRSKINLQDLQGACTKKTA
Format: cell-based
In short: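 HepG2 cells (passage P105–P110) treated 18 hours with compounds in 10-point three-fold dilutions from 3 μM. RIPA lysates (15 μg protein, BCA-quantified) run on SDS-PAGE and immunoblotted for HMGCR (1:500) with GAPDH (1:20000) as loading control, primary antibodies 16 hours at 4° C.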

Compound | DC50 [nM]
C[C@H]1C=C2C=C[C@H](C)[C@H](CC[C@@H]3C[C@@H](O[Si](C)(C)C(C)(C)C)CC(=O)O3)[C@H]2[C@@H](OC(=O)NCCCCCCCCCCCNc2cccc3c2C(=O)N(C2CCC(=O)NC2=O)C3=O)C1 (stereo partly drawn) [Compound 57, (1S,3R,7S,8S,8aR)-8-(2-((2R,4R)-4-((tert-butyldimethylsilyl)oxy)-6-oxotetrahydro-2H-pyran-2-yl)ethyl)-3,7-dimethyl-1,2,3,7,8,8a-hexahydronaphthalen-1-yl (11-((2-(2,6-dioxopiperidin-3-yl)-1,3-dioxoisoindolin-4-yl)amino)undecyl)carbamate] | < 50
C[C@H]1C=C2C=C[C@H](C)[C@H](CC[C@@H]3C[C@@H](O)CC(=O)O3)[C@H]2[C@@H](OC(=O)NCCCCCNc2cccc3c2C(=O)N(C2CCC(=O)NC2=O)C3=O)C1 (stereo partly drawn) [Compound 58, (1S,3R,7S,8S,8aR)-8-(2-((2R,4R)-4-hydroxy-6-oxotetrahydro-2H-pyran-2-yl)ethyl)-3,7-dimethyl-1,2,3,7,8,8a-hexahydronaphthalen-1-yl (5-((2-(2,6-dioxopiperidin-3-yl)-1,3-dioxoisoindolin-4-yl)amino)pentyl)carbamate] | 50 to 500
C[C@H]1C=C2C=C[C@H](C)[C@H](CC[C@@H]3C[C@@H](O)CC(=O)O3)[C@H]2[C@@H](OC(=O)NCCCCCCNc2cccc3c2C(=O)N(C2CCC(=O)NC2=O)C3=O)C1 (stereo partly drawn) [Compound 59, (1S,3R,7S,8S,8aR)-8-(2-((2R,4R)-4-hydroxy-6-oxotetrahydro-2H-pyran-2-yl)ethyl)-3,7-dimethyl-1,2,3,7,8,8a-hexahydronaphthalen-1-yl (6-((2-(2,6-dioxopiperidin-3-yl)-1,3-dioxoisoindolin-4-yl)amino)hexyl)carbamate] | 50 to 500
C[C@H]1C=C2C=C[C@H](C)[C@H](CC[C@@H]3C[C@@H](O)CC(=O)O3)[C@H]2[C@@H](OC(=O)NCCCCCCCNc2cccc3c2C(=O)N(C2CCC(=O)NC2=O)C3=O)C1 (stereo partly drawn) [Compound 60, (1S,3R,7S,8S,8aR)-8-(2-((2R,4R)-4-hydroxy-6-oxotetrahydro-2H-pyran-2-yl)ethyl)-3,7-dimethyl-1,2,3,7,8,8a-hexahydronaphthalen-1-yl (7-((2-(2,6-dioxopiperidin-3-yl)-1,3-dioxoisoindolin-4-yl)amino)heptyl)carbamate] | 50 to 500
C[C@H]1C=C2C=C[C@H](C)[C@H](CC[C@@H]3C[C@@H](O)CC(=O)O3)[C@H]2[C@@H](OC(=O)NCCCCCCCCNc2cccc3c2C(=O)N(C2CCC(=O)NC2=O)C3=O)C1 (stereo partly drawn) [Compound 61, (1S,3R,7S,8S,8aR)-8-(2-((2R,4R)-4-hydroxy-6-oxotetrahydro-2H-pyran-2-yl)ethyl)-3,7-dimethyl-1,2,3,7,8,8a-hexahydronaphthalen-1-yl (8-((2-(2,6-dioxopiperidin-3-yl)-1,3-dioxoisoindolin-4-yl)amino)octyl)carbamate] | < 50
C[C@H]1C=C2C=C[C@H](C)[C@H](CC[C@@H]3C[C@@H](O)CC(=O)O3)[C@H]2[C@@H](OC(=O)NCCCCCCCCCNc2cccc3c2C(=O)N(C2CCC(=O)NC2=O)C3=O)C1 (stereo partly drawn) [Compound 62, (1S,3R,7S,8S,8aR)-8-(2-((2R,4R)-4-hydroxy-6-oxotetrahydro-2H-pyran-2-yl)ethyl)-3,7-dimethyl-1,2,3,7,8,8a-hexahydronaphthalen-1-yl (9-((2-(2,6-dioxopiperidin-3-yl)-1,3-dioxoisoindolin-4-yl)amino)nonyl)carbamate] | 50 to 500
C[C@H]1C=C2C=C[C@H](C)[C@H](CC[C@@H]3C[C@@H](O)CC(=O)O3)[C@H]2[C@@H](OC(=O)NCCCCCCCCCCNc2cccc3c2C(=O)N(C2CCC(=O)NC2=O)C3=O)C1 (stereo partly drawn) [Compound 63, (1S,3R,7S,8S,8aR)-8-(2-((2R,4R)-4-hydroxy-6-oxotetrahydro-2H-pyran-2-yl)ethyl)-3,7-dimethyl-1,2,3,7,8,8a-hexahydronaphthalen-1-yl (10-((2-(2,6-dioxopiperidin-3-yl)-1,3-dioxoisoindolin-4-yl)amino)decyl)carbamate] | < 50
C[C@H]1C=C2C=C[C@H](C)[C@H](CC[C@@H]3C[C@@H](O)CC(=O)O3)[C@H]2[C@@H](OC(=O)NCCCCCCCCCCCNc2cccc3c2C(=O)N(C2CCC(=O)NC2=O)C3=O)C1 (stereo partly drawn) [Compound 64, (1S,3R,7S,8S,8aR)-8-(2-((2R,4R)-4-hydroxy-6-oxotetrahydro-2H-pyran-2-yl)ethyl)-3,7-dimethyl-1,2,3,7,8,8a-hexahydronaphthalen-1-yl (11-((2-(2,6-dioxopiperidin-3-yl)-1,3-dioxoisoindolin-4-yl)amino)undecyl)carbamate] | < 50
C[C@H]1C=C2C=C[C@H](C)[C@H](CC[C@@H]3C[C@@H](O[Si](C)(C)C(C)(C)C)CC(=O)O3)[C@H]2[C@@H](OC(=O)NCCOCCOCCNc2cccc3c2CN(C2CCC(=O)NC2=O)C3=O)C1 (stereo partly drawn) [Compound 65, (1S,3R,7S,8S,8aR)-8-(2-((2R,4R)-4-((tert-butyldimethylsilyl)oxy)-6-oxotetrahydro-2H-pyran-2-yl)ethyl)-3,7-dimethyl-1,2,3,7,8,8a-hexahydronaphthalen-1-yl (2-(2-(2-((2-(2,6-dioxopiperidin-3-yl)-1-oxoisoindolin-4-yl)amino)ethoxy)ethoxy)ethyl)carbamate] | < 50
C[C@H]1C=C2C=C[C@H](C)[C@H](CC[C@@H]3C[C@@H](O)CC(=O)O3)[C@H]2[C@@H](OC(=O)NCCOCCOCCNc2cccc3c2CN(C2CCC(=O)NC2=O)C3=O)C1 (stereo partly drawn) [Compound 66, (1S,3R,7S,8S,8aR)-8-(2-((2R,4R)-4-hydroxy-6-oxotetrahydro-2H-pyran-2-yl)ethyl)-3,7-dimethyl-1,2,3,7,8,8a-hexahydronaphthalen-1-yl (2-(2-(2-((2-(2,6-dioxopiperidin-3-yl)-1-oxoisoindolin-4-yl)amino)ethoxy)ethoxy)ethyl)carbamate] | < 50
C[C@H]1C=C2C=C[C@H](C)[C@H](CC[C@@H]3C[C@@H](O[Si](C)(C)C(C)(C)C)CC(=O)O3)[C@H]2[C@@H](OC(=O)NCCOCCOCCNc2ccc3c(c2)C(=O)N(C2CCC(=O)NC2=O)C3=O)C1 (stereo partly drawn) [Compound 67, (1S,3R,7S,8S,8aR)-8-(2-((2R,4R)-4-((tert-butyldimethylsilyl)oxy)-6-oxotetrahydro-2H-pyran-2-yl)ethyl)-3,7-dimethyl-1,2,3,7,8,8a-hexahydronaphthalen-1-yl (2-(2-(2-((2-(2,6-dioxopiperidin-3-yl)-1,3-dioxoisoindolin-5-yl)amino)ethoxy)ethoxy)ethyl)carbamate] | < 50
C[C@H]1C=C2C=C[C@H](C)[C@H](CC[C@@H]3C[C@@H](O)CC(=O)O3)[C@H]2[C@@H](OC(=O)NCCOCCOCCNc2ccc3c(c2)C(=O)N(C2CCC(=O)NC2=O)C3=O)C1 (stereo partly drawn) [Compound 68, (1S,3R,7S,8S,8aR)-8-(2-((2R,4R)-4-hydroxy-6-oxotetrahydro-2H-pyran-2-yl)ethyl)-3,7-dimethyl-1,2,3,7,8,8a-hexahydronaphthalen-1-yl (2-(2-(2-((2-(2,6-dioxopiperidin-3-yl)-1,3-dioxoisoindolin-5-yl)amino)ethoxy)ethoxy)ethyl)carbamate] | < 50
CO[C@H]1CC(=O)O[C@H](CC[C@@H]2[C@@H]3C(=C[C@H](C)C[C@@H]3OC(=O)NCCOCCOCCNc3cccc4c3C(=O)N(C3CCC(=O)NC3=O)C4=O)C=C[C@@H]2C)C1 (stereo partly drawn) [Compound 69, (1S,3R,7S,8S,8aR)-8-(2-((2R,4R)-4-methoxy-6-oxotetrahydro-2H-pyran-2-yl)ethyl)-3,7-dimethyl-1,2,3,7,8,8a-hexahydronaphthalen-1-yl (2-(2-(2-((2-(2,6-dioxopiperidin-3-yl)-1,3-dioxoisoindolin-4-yl)amino)ethoxy)ethoxy)ethyl)carbamate] | < 50
CC(C)[Si](O[C@H]1CC(=O)O[C@H](CC[C@@H]2[C@@H]3C(=C[C@H](C)C[C@@H]3OC(=O)NCCOCCOCCNc3cccc4c3C(=O)N(C3CCC(=O)NC3=O)C4=O)C=C[C@@H]2C)C1)(C(C)C)C(C)C (stereo partly drawn) [Compound 70, (1S,3R,7S,8S,8aR)-3,7-dimethyl-8-(2-((2R,4R)-6-oxo-4-((triisopropylsilyl)oxy)tetrahydro-2H-pyran-2-yl)ethyl)-1,2,3,7,8,8a-hexahydronaphthalen-1-yl (2-(2-(2-((2-(2,6-dioxopiperidin-3-yl)-1,3-dioxoisoindolin-4-yl)amino)ethoxy)ethoxy)ethyl)carbamate] | < 50
